In article PMC6801819, “Exogenous Iron Increases Fasciocidal Activity and Hepatocellular Toxicity of the Synthetic Endoperoxides OZ78 and MT04” (International Journal of Molecular Sciences, 2019):

What was measured:
adult F. hepatica = assay: In vitro/ex vivo adult worm viability assay; type: cell-based, Fasciola hepatica; details: for viability of adult F. hepatica (viability score): score 4 normal activity to 1 death; for viability of adult F. hepatica: 48 h
Protocol: The experiments were performed, as described previously. Adult F. hepatica were collected from bovine liver bile ducts obtained from the local slaughterhouse (Basel, Switzerland). After careful washing, a single adult worm was placed per well (6-well plate, Costar, MA, USA) containing 5.4 mL RPMI 1640 (Gibco, N.Y., USA), supplemented with 1% (v/v) antibiotics (50 µg/mL streptomycin and 50 U/mL penicillin), 1% (v/v) drug solution, […] Control worms were incubated in 1% (v/v) DMSO combined with iron or hemin. Experiments were conducted in triplicates and repeated once. Cultures were kept at 37 °C in an atmosphere of 5% CO2. The viabilities of treated and untreated worms were monitored at 0, 24, 48, and 72 h. Worms were examined by eye and/or using a dissecting microscope (20× lenses). The viability of adult flukes was scored using the following scale: 4: normal activity; movements were visible without a microscope, 3: reduced activities, 2: very weak activities detected only using microscopic magnification, and 1: death of worm (no movement observed for two min using a microscope).

HepG2 cells [1] = assay: Cellular ATP content (CellTiter-Glo); type: cell-based, human; details: 24 h, HepG2
Protocol: Stock solutions of the drugs tested were prepared in DMSO 100% (v/v).
In viability assays, HepG2 cells were treated with 0.1% Triton-X or 0.1% DMSO for positive or negative control, respectively.
To assess cellular ATP content, HepG2 cells were seeded in white-wall 96-well plates with a clear bottom (Nunc). One day after seeding, cells were treated with the respective drugs. […] Luminescence was measured using Tecan M200 Infinite Pro.

[2] = test system: complex II of the mitochondrial electron transport chain; assay: High-resolution respirometry, succinate + rotenone (complex II); type: cell-based, human; details: AS 100 µM, OZ78 500 µM, MT04 500 µM, 24 h, permeabilized HepG2, vs control
Protocol: (§1) After incubation with different drugs for 24 h, HepG2 cells were trypsinized and resuspended in DMEM with 10% fetal calf serum (FCS) and then centrifuged for 5 min (180× g). Cells were resuspended in MiRo5 respiration buffer (110 mM sucrose, 0.5 mM ethylene glycol-bis(β-aminoethyl ether)-N,N,N′,N′-tetraacetic acid (EGTA), 3.0 mM MgCl2, 80 mM KCl, 60 mM K-lactobionate, 10 mM KH2PO4, 20 mM taurine, 20 mM Hepes, 1.0 g/L BSA, pH 7.1). Respiration rates were measured at 37 °C using a high-resolution oxygraph (Oxygraph-2k, Oroboros Instruments, Innsbruck, Austria). Respiration rates were calculated as the time derivative of oxygen concentration measured in the closed respirometer. The amplified signal was recorded in a computer with an online display of the calibrated oxygen concentration and oxygen flux (DatLab software for data acquisition and analysis; Oroboros Instruments). The mitochondrial complex activity was assessed by a standard titration protocol: first cells were permeabilized with digitonin (10 µg/1 million cells) for 5 min. Afterward, for complex I-dependent maximal respiration stimulation, substrates added were glutamate (10 mM) and malate (5 mM), which provide nicotinamide adenine dinucleotide (NADH) to the respiratory chain (complex I activation), followed by addition of ADP (2.5 mM) (state 3, maximal respiration). After a stable signal was reached and marked, rotenone (0.5 µM) was added to inhibit complex I, and then complex II-dependent respiration was stimulated by adding succinate (10 mM), which provides flavin adenine dinucleotide (FADH) to the respiratory chain (complex II activation, state 3). Afterward, complex III was inhibited by antimycin A (2.5 µM), and complex IV-dependent respiration was measured by adding ascorbate (2 mM) and N,N,N′,N′-tetramethyl-p-phenylendiamine (TMPD, 0.5 mM). We confirmed the integrity of the outer mitochondrial membrane by showing the absence of a stimulatory effect of exogenous cytochrome c (10 µM) on respiration. Respiration was expressed as oxygen consumption per 5 × 10^5 cells.

[3] = test system: complex IV of the mitochondrial electron transport chain; assay: High-resolution respirometry, TMPD/ascorbate + antimycin A (complex IV); type: cell-based, human; details: AS 100 µM, OZ78 500 µM, MT04 500 µM, 24 h, permeabilized HepG2
Protocol: as §1

HepG2 cells [4] = assay: Cellular reactive oxygen species (DCF-DA); type: cell-based, human; details: 24 h, HepG2; for cellular ROS content: drug + Fe2+; for increase of cellular ROS content, factor: drug alone (100 or 500 µM), no exogenous iron
Protocol: Stock solutions of the drugs tested were prepared in DMSO 100% (v/v). […] LC-MS measurements confirmed the stability of the compounds (data not shown). Treatments with AS, MT04, or OZ78 (100 or 500 µM) were performed either alone or in combination with 8% (v/v) hemin or FeCl2 solution for 24 h. The final iron concentration used was 122 µM (stock 1.5 mM) based on previous in vitro studies with F. hepatica. Dichlorodihydrofluorescein diacetate (DCF-DA) dissolved in DMSO was used to assess cellular formation of reactive oxygen species (ROS). HepG2 cells were seeded in a black-wall 96 well plate with a clear bottom as described above. Briefly, 30 min before treatment started, DCF-DA was added to the cells at a final concentration of 25 µM. DCF-DA was removed completely before the drugs were added. ROS was measured after 90 min and 24 h of drug exposure using a Tecan M200 Infinite Pro (excitation 485 nm, emission 535 nm).

F. hepatica = details: rats infected with F. hepatica, single oral dose AS 200 mg/kg, OZ78 100 mg/kg, MT04 50 mg/kg; cited from earlier work
[5] = 50 µg/mL drug + Fe2+ (iron), 72 h
[6] = 50 µg/mL drug + Fe2+ (iron), 24 h

Structure (SMILES) | viability of adult F. hepatica (viability score) (adult F. hepatica; [5]) | viability of adult F. hepatica (viability score) (adult F. hepatica; 50 µg/mL drug + hemin, 72 h) | viability of adult F. hepatica (viability score) (adult F. hepatica; 50 µg/mL drug alone, 72 h) | decrease in cellular ATP content as compared to DMSO (HepG2 cells [1]; 100 µM + Fe2+ (iron)) | decrease in cellular ATP content as compared to DMSO (HepG2 cells [1]; 100 µM + hemin) [%] | decrease in cellular ATP content as compared to DMSO (HepG2 cells [1]; 100 µM alone) | decrease in cellular ATP content as compared to DMSO (HepG2 cells [1]; 500 µM + Fe2+ (iron)) | decrease in cellular ATP content as compared to DMSO (HepG2 cells [1]; 500 µM + hemin) | decrease in cellular ATP content as compared to DMSO (HepG2 cells [1]; 500 µM alone) | inhibition of mitochondrial respiration, succinate + rotenone (complex II) [2] | decrease of maximal ADP-stimulated respiration rate, TMPD/ascorbate + antimycin A (complex IV) [3] | cellular ROS content (HepG2 cells [4]) | increase of cellular ROS content, factor (HepG2 cells [4]) | killing of juvenile and adult liver flukes in vivo (F. hepatica) | viability of adult F. hepatica (viability score) (adult F. hepatica; [6]) | viability of adult F. hepatica (viability score) (adult F. hepatica; 50 µg/mL drug + hemin, 24 h) | viability of adult F. hepatica (viability score) (adult F. hepatica; 50 µg/mL drug alone, 24 h) | viability of adult F. hepatica (adult F. hepatica; 50 µg/mL drug + Fe2+ (iron)) | viability of adult F. hepatica (adult F. hepatica; 50 µg/mL drug + hemin)
C[C@H]1[C@H](OC(=O)CCC(=O)O)O[C@@H]2O[C@@]3(C)CC[C@H]4[C@H](C)CC[C@@H]1[C@@]24OO3 [AS, artesunate, reference compound] | death of the worms | death of the worms | death of the worms | 93% | 95 | 55% | complete depletion in cellular ATP | complete depletion in cellular ATP | complete depletion in cellular ATP | 83% | 47% | increased the cellular ROS content | 5 | efficiently killed juvenile and adult liver flukes | – | – | – | – | –
O=C(O)CC1CCC2(CC1)OOC1(OO2)C2CC3CC(C2)CC1C3 (stereo not shown) [MT04] | 1.6 | death of the worms | 1.6 | 20% | 40 | not toxic | 65% | 65% | 20% | 61% | 22% | not | – | efficiently killed juvenile and adult liver flukes | 2.2 | 2.5 | not affected | – | –
O=C(O)C[C@H]1CC[C@]2(CC1)OOC1(O2)C2CC3CC(C2)CC1C3 (stereo partly shown) [OZ78] | 2 | 2 | 2 | not toxic | 12 | not toxic | not enhanced by the addition of iron or hemin | not enhanced by the addition of iron or hemin | 14% | only numerically, but without reaching statistical significance | only numerically, but without reaching statistical significance | increased the cellular ROS content | 5 | efficiently killed juvenile and adult liver flukes | 3 | 3 | no effect on worm vitality | more efficient in impairing worm viability than OZ78 alone | more efficient in impairing worm viability than OZ78 alone
